Where two headings read alike, the source gives them in different places.

What all share (experiment): biochemical
Holding throughout (parameters): KINOMEscan active site-directed competition binding assay (DiscoveRx), 456 kinases, per cent of control at 300 nM
Holding throughout (conditions): read-out: Percent of Control (%)

The target of one assay is MAP4K3 (Homo sapiens, UniProt Q8IVH8). The essentials: (§1)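 Binding was measured with an active site-directed competition binding assay that quantifies compound–kinase interactions. Test compounds were screened at 300 nmol/L across a 456-kinase panel.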
The target of a further assay is EPHA6 (Homo sapiens, UniProt Q9UF33). The essentials:
as §1

The target in the next assay is MARK2 (Homo sapiens, UniProt Q7KZI7). The essentials:
as §1

A further assay concerns the target CAMK1G (Homo sapiens, UniProt Q96NX5). The method, boiled down:
as §1

The target in another assay is SGK2 (Homo sapiens, UniProt Q9HBY8). The essentials:
as §1

The target in another assay is ACVR1 (Homo sapiens, UniProt Q04771). The method, boiled down: as §1
A further assay has as its target PLK1 (Homo sapiens, UniProt P53350). The essentials:
as §1

For another assay, the target named is LIMK2 (Homo sapiens, UniProt P53671). The essentials: as §1
A further assay has as its target T1, ADCK4 (Homo sapiens, UniProt Q96D53).
T1 construct: gene COQ8B
The method, boiled down:
as §1

For a further assay, the target named is TNIK (Homo sapiens, UniProt Q9UKE5). The essentials: as §1
Another assay deals with T2, PAK7 (Homo sapiens, UniProt Q9P286).
T2 construct: gene PAK5
The method, boiled down:
as §1

In another assay the target is EPHB2 (Homo sapiens, UniProt P29323). The essentials: as §1
In the next assay the target is FYN (Homo sapiens, UniProt P06241). The method, boiled down:
as §1

The target in another assay is T3, ADCK3 (Homo sapiens, UniProt Q8NI60).
T3 construct: gene COQ8A
The essentials: as §1

The next assay concerns the target ACVR2A (Homo sapiens, UniProt P27037). The method, boiled down: as §1
For the next assay, the target named is T4, MST4 (Homo sapiens, UniProt Q9P289).
T4 construct: gene STK26
The essentials:
as §1

For another assay, the target named is CSNK2A2 (Homo sapiens, UniProt P19784). The method, boiled down:
as §1

For a further assay, the target named is T5, ABL1-nonphosphorylated (Homo sapiens, UniProt P00519).
T5 construct: nonphosphorylated
The essentials:
as §1

The target in another assay is PAK4 (Homo sapiens, UniProt O96013). The method, boiled down:
as §1

The next assay deals with T6, CDC2L2 (Homo sapiens, UniProt Q9UQ88).
T6 construct: gene CDK11A
The essentials:
as §1

The next assay addresses CDKL3 (Homo sapiens, UniProt Q8IVW4). The method, boiled down:
as §1

The next assay has as its target BMPR1B (Homo sapiens, UniProt O00238). The method, boiled down: as §1

T6 sequence (Q9UQ88 whole entry): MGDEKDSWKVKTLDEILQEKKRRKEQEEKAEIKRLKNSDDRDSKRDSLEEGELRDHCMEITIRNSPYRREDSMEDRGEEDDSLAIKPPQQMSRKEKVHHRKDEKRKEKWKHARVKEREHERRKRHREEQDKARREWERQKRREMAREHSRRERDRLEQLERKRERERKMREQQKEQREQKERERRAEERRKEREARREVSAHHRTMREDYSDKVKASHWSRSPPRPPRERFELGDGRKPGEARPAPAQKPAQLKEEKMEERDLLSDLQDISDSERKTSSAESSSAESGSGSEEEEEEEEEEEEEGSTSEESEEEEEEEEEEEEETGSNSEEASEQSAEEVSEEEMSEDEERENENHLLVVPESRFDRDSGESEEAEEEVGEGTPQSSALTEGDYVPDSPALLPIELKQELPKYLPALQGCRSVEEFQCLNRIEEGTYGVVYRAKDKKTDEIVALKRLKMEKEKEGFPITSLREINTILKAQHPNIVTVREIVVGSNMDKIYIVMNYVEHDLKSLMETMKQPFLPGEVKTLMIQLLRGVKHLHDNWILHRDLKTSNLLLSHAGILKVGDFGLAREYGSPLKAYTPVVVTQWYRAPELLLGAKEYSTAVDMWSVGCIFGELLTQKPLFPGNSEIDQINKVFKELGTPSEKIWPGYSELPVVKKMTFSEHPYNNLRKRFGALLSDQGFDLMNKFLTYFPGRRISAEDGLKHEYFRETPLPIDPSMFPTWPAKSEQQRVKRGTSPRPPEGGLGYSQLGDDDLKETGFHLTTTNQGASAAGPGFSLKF
Chain of CAMK1G (Q96NX5 whole entry): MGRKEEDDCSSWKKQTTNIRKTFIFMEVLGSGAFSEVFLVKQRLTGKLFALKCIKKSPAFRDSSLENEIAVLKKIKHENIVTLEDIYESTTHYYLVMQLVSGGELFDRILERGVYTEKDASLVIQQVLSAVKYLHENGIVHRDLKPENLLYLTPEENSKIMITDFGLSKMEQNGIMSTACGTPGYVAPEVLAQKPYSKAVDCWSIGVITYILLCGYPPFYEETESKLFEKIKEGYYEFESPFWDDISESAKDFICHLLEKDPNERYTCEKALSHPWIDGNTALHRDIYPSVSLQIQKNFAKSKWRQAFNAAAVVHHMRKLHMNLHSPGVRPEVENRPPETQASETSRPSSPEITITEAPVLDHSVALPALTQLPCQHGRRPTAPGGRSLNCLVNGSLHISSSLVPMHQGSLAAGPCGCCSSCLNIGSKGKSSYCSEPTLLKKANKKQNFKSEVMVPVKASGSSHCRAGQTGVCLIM
Chain of ACVR1 (Q04771 whole entry): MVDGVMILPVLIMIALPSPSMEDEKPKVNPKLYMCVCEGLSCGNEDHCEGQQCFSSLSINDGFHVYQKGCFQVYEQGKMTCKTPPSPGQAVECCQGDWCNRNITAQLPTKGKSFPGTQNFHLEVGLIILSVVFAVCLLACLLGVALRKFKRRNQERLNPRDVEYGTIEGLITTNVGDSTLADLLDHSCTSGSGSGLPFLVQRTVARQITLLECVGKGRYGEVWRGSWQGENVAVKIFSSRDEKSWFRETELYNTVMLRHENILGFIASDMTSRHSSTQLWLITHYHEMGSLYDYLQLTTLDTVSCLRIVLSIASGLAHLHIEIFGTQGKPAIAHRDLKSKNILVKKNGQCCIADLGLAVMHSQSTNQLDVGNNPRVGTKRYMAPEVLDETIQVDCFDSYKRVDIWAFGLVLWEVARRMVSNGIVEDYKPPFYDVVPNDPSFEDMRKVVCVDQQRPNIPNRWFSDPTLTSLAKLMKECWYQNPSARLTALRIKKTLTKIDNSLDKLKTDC
Chain of CDKL3 (Q8IVW4 whole entry): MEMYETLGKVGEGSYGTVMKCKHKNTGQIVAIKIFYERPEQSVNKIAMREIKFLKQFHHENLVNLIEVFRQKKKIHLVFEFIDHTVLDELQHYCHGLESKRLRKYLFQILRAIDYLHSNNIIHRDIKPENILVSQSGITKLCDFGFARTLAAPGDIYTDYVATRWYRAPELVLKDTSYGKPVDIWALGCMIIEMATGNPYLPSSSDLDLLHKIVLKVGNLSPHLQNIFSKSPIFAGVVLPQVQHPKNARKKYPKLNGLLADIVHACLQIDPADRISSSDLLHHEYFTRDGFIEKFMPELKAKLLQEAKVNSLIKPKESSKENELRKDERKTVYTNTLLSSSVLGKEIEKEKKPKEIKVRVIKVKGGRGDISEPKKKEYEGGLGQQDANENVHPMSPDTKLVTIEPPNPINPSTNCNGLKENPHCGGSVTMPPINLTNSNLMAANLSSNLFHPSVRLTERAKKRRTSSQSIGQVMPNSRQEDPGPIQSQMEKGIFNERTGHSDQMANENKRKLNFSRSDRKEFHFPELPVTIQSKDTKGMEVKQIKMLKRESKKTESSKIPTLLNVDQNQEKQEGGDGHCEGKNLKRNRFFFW
T5 sequence (P00519 whole entry): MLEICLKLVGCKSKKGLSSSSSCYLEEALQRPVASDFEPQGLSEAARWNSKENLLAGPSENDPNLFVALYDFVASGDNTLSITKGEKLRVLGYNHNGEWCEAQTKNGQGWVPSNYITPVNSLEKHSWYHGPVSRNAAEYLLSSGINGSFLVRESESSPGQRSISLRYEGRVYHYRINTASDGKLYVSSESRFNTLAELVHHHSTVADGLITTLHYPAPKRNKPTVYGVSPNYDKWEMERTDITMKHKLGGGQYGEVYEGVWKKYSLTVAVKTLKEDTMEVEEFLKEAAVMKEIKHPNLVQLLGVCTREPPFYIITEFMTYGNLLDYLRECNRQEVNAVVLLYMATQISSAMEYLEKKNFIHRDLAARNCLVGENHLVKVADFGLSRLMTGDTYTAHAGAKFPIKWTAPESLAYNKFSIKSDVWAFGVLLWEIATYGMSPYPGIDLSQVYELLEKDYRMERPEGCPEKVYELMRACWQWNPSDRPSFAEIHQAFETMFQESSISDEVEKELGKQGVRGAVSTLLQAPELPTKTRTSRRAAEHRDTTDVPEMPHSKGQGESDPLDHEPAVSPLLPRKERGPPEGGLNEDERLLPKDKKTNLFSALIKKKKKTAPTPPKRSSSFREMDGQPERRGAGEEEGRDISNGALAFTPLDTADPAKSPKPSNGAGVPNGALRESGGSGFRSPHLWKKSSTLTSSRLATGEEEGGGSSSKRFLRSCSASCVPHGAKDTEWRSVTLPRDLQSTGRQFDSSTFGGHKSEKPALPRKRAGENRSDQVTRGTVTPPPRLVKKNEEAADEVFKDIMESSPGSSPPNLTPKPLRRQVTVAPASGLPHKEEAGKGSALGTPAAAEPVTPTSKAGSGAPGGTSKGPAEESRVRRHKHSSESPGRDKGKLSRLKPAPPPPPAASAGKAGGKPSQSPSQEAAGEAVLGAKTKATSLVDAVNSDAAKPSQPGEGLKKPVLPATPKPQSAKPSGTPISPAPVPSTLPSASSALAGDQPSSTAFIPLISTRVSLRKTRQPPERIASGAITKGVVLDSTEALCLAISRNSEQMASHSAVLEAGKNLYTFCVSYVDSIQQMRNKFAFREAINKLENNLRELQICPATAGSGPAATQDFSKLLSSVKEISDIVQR
Chain of BMPR1B (O00238 whole entry): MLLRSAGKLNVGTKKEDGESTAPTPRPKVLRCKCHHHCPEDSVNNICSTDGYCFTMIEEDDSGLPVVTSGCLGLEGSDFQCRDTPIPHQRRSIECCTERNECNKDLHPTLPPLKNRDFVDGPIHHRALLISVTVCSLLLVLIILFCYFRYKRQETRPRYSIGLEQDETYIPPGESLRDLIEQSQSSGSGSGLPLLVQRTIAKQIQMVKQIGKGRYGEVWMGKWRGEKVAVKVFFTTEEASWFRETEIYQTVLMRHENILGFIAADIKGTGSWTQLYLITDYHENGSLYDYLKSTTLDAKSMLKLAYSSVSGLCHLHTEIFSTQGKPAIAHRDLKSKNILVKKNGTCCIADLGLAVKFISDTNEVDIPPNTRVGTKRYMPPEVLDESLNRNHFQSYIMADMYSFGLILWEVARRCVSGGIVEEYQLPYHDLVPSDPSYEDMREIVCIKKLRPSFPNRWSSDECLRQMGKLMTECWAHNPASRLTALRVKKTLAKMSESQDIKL
Chain of EPHB2 (P29323 whole entry): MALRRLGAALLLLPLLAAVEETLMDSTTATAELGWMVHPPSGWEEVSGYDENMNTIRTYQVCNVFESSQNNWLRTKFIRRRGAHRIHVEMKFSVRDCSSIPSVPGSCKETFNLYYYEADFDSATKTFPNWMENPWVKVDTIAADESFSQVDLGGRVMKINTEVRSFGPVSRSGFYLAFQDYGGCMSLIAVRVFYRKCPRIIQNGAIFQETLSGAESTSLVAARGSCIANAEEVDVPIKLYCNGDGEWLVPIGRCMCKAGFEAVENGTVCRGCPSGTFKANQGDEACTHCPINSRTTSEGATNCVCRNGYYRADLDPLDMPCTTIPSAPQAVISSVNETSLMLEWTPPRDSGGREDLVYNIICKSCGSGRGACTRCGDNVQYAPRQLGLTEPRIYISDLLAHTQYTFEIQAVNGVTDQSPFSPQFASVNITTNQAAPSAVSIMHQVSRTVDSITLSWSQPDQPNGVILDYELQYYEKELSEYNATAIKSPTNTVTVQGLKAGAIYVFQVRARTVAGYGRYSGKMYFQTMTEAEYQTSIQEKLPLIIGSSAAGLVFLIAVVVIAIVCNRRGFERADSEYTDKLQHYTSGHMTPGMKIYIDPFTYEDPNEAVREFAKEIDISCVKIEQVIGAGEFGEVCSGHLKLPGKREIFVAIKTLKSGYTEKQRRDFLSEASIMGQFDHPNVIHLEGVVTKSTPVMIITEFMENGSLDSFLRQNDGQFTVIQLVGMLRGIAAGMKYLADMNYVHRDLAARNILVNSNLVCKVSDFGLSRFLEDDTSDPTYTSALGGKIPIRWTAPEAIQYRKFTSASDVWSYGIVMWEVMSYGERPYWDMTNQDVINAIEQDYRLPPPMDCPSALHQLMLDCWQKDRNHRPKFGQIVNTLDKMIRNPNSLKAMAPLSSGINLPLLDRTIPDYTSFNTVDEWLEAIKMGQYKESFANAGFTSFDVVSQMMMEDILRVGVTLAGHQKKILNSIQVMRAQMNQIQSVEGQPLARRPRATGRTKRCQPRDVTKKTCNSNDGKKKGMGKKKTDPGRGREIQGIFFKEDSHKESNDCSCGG

Turning to `Cc1ncccc1Oc1sc(C(N)=O)c2c1-c1c(cnn1C)CC2` [T-474, 1-methyl-8-((2-methylpyridin-3-yl)oxy)-4,5-dihydro-1H-thieno[3,4-g]indazole-6-carboxamide], the remaining binding at 0.3 µM on MAP4K3 worked out at 100%; on EPHA6, 100%; on MARK2, 100%; at CAMK1G it was 100%; at SGK2, 95%; at ACVR1 it was 100%. Further, the remaining binding at 0.3 µM at PLK1 was found to be 100%; on LIMK2, 79%; on ADCK4, 92%; at TNIK, 100%; on PAK7, 100%; at EPHB2, 83%. Further, the remaining binding at 0.3 µM is 100% on FYN; 90% at ADCK3; 87% at ACVR2A; 64% at MST4; 100% on CSNK2A2; 87% on ABL1-nonphosphorylated. In addition, the remaining binding at 0.3 µM at PAK4 was found to be 100%; on CDC2L2 it was 98%; on CDKL3, 96%; at BMPR1B it was 100%.
In the case of `O=C(/C=C/c1cnccc1-c1ccc(F)cc1)Nc1ccc(CCc2nnco2)cc1` [T-418, (2E)-3-(4-(4-fluorophenyl)pyridin-3-yl)-N-(4-(2-(1,3,4-oxadiazol-2-yl)ethyl)phenyl)acrylamide], the remaining binding at 0.3 µM came to 82% on MAP4K3 (sheet T-418); 100% on EPHA6 (sheet T-418); 100% on MARK2 (sheet T-418); 100% at CAMK1G (sheet T-418); 94% on SGK2 (sheet T-418); 100% at ACVR1 (sheet T-418). Also, the remaining binding at 0.3 µM turned out to be 100% at PLK1 (sheet T-418); 74% on LIMK2 (sheet T-418); 91% at ADCK4 (sheet T-418); 100% on TNIK (sheet T-418); 100% at PAK7 (sheet T-418); 100% on EPHB2 (sheet T-418). The remaining binding at 0.3 µM on FYN (sheet T-418) was determined as 100%; on ADCK3 (sheet T-418), 100%; at ACVR2A (sheet T-418), 91%; at MST4 (sheet T-418) it was 63%; on CSNK2A2 (sheet T-418), 100%; on ABL1-nonphosphorylated (sheet T-418), 89%. The remaining binding at 0.3 µM on PAK4 (sheet T-418) was determined as 99%; at CDC2L2 (sheet T-418), 100%; at CDKL3 (sheet T-418), 78%; on BMPR1B (sheet T-418) it was 100%.

Values taken from article PMC5862592, “CDK8/19 inhibition induces premature G1/S transition and ATR-dependent cell death in prostate cancer cells” (Oncotarget, 2018).
